{
  "source": "patent US12721826B2",
  "about": "“Salt of a pharmaceutical compound” (ACTIMED THERAPEUTICS LTD, priority 2023, dated 2026)",
  "key": {"[1]": {"assay": "Solid form stability: XRPD re-analysis after drying under vacuum and after storage at 40° C./75% RH", "assay_type": "physicochemical", "settings": "for hygroscopicity properties: overall assessment in words; for XRPD form after drying and storage: after drying at 40° C. under vacuum and storage at 40° C./75% RH", "procedure": "XRPD analysis was carried out on a PANalytical X'pert pro with PIXcel detector (128 channels), scanning the samples between 3 and 35° 2θ. The material was gently ground to release any agglomerates and loaded onto a multi-well plate with Kapton or Mylar polymer film to support the sample. The multi-well plate was then placed into the diffractometer and analysed using Cu K radiation (α1 λ=1.54060 Å; α2=1.54443 Å; β=1.39225 Å; α1: α2 ratio=0.5) running in transmission mode (step size 0.0130° 2θ, step time 18.87s) using 40 kV/40 mA generator settings. Data were visualized and images generated using the HighScore Plus 4.7 desktop application (PANalytical, 2017).\nSolutions were allowed to evaporate at ambient temperature (ca. 20° C.) and pressure. Potential salts were dried at 40° C. under vacuum for ca. 19 h and re-analyzed by XRPD then stored at 40° C./75% RH for ca. 19 h and re-analyzed by XRPD."}, "[2]": {"settings": "counterion acid; cited from earlier work"}, "[3]": {"assay": "7 days storage stability of dihydrogenphosphate polymorphs (HPLC purity)", "settings": "for stability (comparison of polymorphs, in words): Pattern 3 compared with Pattern 1 and Pattern 2"}, "[4]": {"settings": "storage at 40° C./75% RH, ca. 19 h"}, "[5]": {"settings": "after drying at 40° C. under vacuum"}},
  "data": [
    {"smiles": "C=CCOc1ccccc1OC[C@@H](O)CNC(C)C.CC(=O)O", "note": "[Acetate Pattern 2]", "values": [
      {"measurement": "Observation after storage at 40° C./75% RH", "setting": "[1]; material from THF", "value": "partially deliquesce"},
      {"measurement": "XRPD result after storage at 40° C./75% RH", "setting": "[1]; material from acetone", "value": "Pattern 2 peaks remained"},
      {"measurement": "Observation after storage at 40° C./75% RH", "setting": "[1]; material from acetone, ethyl acetate and t-BME", "value": "deliquesced"},
      {"measurement": "XRPD result after storage at 40° C./75% RH", "setting": "[1]; material from ethyl acetate and t-BME", "value": "Predominantly amorphous material was obtained"}
    ]},
    {"smiles": "O=S(=O)(O)c1ccccc1", "note": "[Benzenesulfonic acid]", "values": [
      {"measurement": "pKa1", "setting": "[2]", "value": 0.7}
    ]},
    {"smiles": "CC1(C)C2CCC1(CS(=O)(=O)O)C(=O)C2", "note": "(stereo not shown) [Camphorsulfonic acid]", "values": [
      {"measurement": "pKa1", "setting": "[2]", "value": 2.2}
    ]},
    {"smiles": "O=C(O)[C@H](O)[C@@H](O)[C@H](O)[C@H](O)CO", "note": "[D-Gluconic acid]", "values": [
      {"measurement": "pKa1", "setting": "[2]", "value": 3.8}
    ]},
    {"smiles": "O=S(=O)(O)CCS(=O)(=O)O", "note": "[Ethane-1,2-disulfonic acid]", "values": [
      {"measurement": "pKa1", "setting": "[2]", "value": "−2.1"},
      {"measurement": "pKa2", "setting": "[2]", "value": "−1.5"}
    ]},
    {"smiles": "CCS(=O)(=O)O", "note": "[Ethanesulfonic acid]", "values": [
      {"measurement": "pKa1", "setting": "[2]", "value": 2.1}
    ]},
    {"smiles": "O=C(O)CCCC(=O)O", "note": "[Glutaric acid]", "values": [
      {"measurement": "pKa1", "setting": "[2]", "value": 4.34}
    ]},
    {"smiles": "O=C(O)CNC(=O)c1ccccc1", "note": "[Hippuric acid]", "values": [
      {"measurement": "pKa1", "setting": "[2]", "value": 3.6}
    ]},
    {"smiles": "O=S(=O)(O)c1cccc2c(S(=O)(=O)O)cccc12", "note": "[Naphthalene-1,5-disulfonic acid]", "values": [
      {"measurement": "pKa1", "setting": "[2]", "value": "−3.4"},
      {"measurement": "pKa2", "setting": "[2]", "value": "−2.6"}
    ]},
    {"smiles": "C=CCOc1ccccc1OC[C@@H](O)CNC(C)C.O=C(O)C(=O)O", "note": "[Oxalate Pattern 1 & 2, S-oxprenolol oxalate]", "values": [
      {"measurement": "Observation after storage at 40° C./75% RH", "setting": "[1]; [4]", "value": "predominantly unchanged"}
    ]},
    {"smiles": "O=C(O)c1cc2ccccc2c(Cc2c(O)c(C(=O)O)cc3ccccc23)c1O", "note": "[Pamoic acid]", "values": [
      {"measurement": "pKa1", "setting": "[2]", "value": 2.5},
      {"measurement": "pKa2", "setting": "[2]", "value": 3.1}
    ]},
    {"smiles": "O=C(O)c1ccccc1C(=O)O", "note": "[Phthalic acid]", "values": [
      {"measurement": "pKa1", "setting": "[2]", "value": 2.89},
      {"measurement": "pKa2", "setting": "[2]", "value": 5.51}
    ]},
    {"smiles": "C=CCOc1ccccc1OC[C@@H](O)CNC(C)C.O=P(O)(O)O", "note": "[S-oxprenolol dihydrogenphosphate Pattern 1]", "values": [
      {"measurement": "stability (comparison of polymorphs, in words)", "setting": "[3]", "value": "issues with stability"},
      {"measurement": "XRPD form after stress", "setting": "[1]; after heating to 40° C., drying at ambient temperature (ca. 20° C.) under vacuum and storage at 40° C./75% RH", "value": "dihydrogenphosphate Pattern 1 to remain"}
    ]},
    {"smiles": "C=CCOc1ccccc1OC[C@@H](O)CNC(C)C.O=P(O)(O)O", "note": "[S-oxprenolol dihydrogenphosphate Pattern 2]", "values": [
      {"measurement": "stability (comparison of polymorphs, in words)", "setting": "[3]", "value": "issues with stability"},
      {"measurement": "XRPD form after drying", "setting": "[1]; dried under vacuum at ambient temperature (ca. 20° C.) for ca. 69 h, precipitated from ethanol/heptane", "value": "phosphate Pattern 3 was obtained after drying"},
      {"measurement": "XRPD form after drying", "setting": "[1]; isolated from temperature cycling in 1-butanol, after drying", "value": "converted to phosphate Pattern 3"}
    ]},
    {"smiles": "C=CCOc1ccccc1OC[C@@H](O)CNC(C)C.O=P(O)(O)O", "note": "[S-oxprenolol dihydrogenphosphate Pattern 3]", "values": [
      {"measurement": "stability (comparison of polymorphs, in words)", "setting": "[3]", "value": "improved stability"},
      {"measurement": "HPLC purity following storage", "setting": "[3]; after 7 days storage at 40° C./75% RH", "value": "> 99.9", "unit": "% area"},
      {"measurement": "HPLC purity following storage", "setting": "[3]; after 7 days storage at ambient temperature", "value": "> 99.9", "unit": "% area"}
    ]},
    {"smiles": "C=CCOc1ccccc1OC[C@@H](O)CNC(C)C.CC(=O)O", "note": "[acetate salt]", "values": [
      {"measurement": "hygroscopicity properties", "setting": "[1]", "value": "poor"}
    ]},
    {"smiles": "C=CCOc1ccccc1OC[C@@H](O)CNC(C)C.O=C(O)CNC(=O)c1ccccc1", "note": "[hippurate Pattern 1]", "values": [
      {"measurement": "XRPD form after drying", "setting": "[1]; [5]", "value": "hippurate Pattern 1 was retained"},
      {"measurement": "hygroscopicity properties", "setting": "[1]", "value": "poor"},
      {"measurement": "Observation after storage at 40° C./75% RH", "setting": "[1]; [4]", "value": "deliquescence was observed to amorphous materials"}
    ]},
    {"smiles": "C=CCOc1ccccc1OC[C@@H](O)CNC(C)C.O=C(O)C(=O)O", "note": "[oxalate Pattern 1, S-oxprenolol oxalate]", "values": [
      {"measurement": "XRPD form after drying and storage", "setting": "[1]", "value": "oxalate Pattern 1 was retained"}
    ]},
    {"smiles": "C=CCOc1ccccc1OC[C@@H](O)CNC(C)C.O=C(O)C(=O)O", "note": "[oxalate Pattern 2, S-oxprenolol oxalate]", "values": [
      {"measurement": "XRPD form after drying", "setting": "[1]; [5]", "value": "a mixture of Pattern 1 and 2 was obtained"}
    ]},
    {"smiles": "C=CCOc1ccccc1OC[C@@H](O)CNC(C)C.O=C(O)c1ccc2ccccc2c1O", "note": "[xinafoate Pattern 1]", "values": [
      {"measurement": "XRPD form after drying and storage", "setting": "[1]", "value": "xinafoate Pattern 1 was retained"}
    ]}
  ]
}
